Tested on: Male Wistar rats
Assay: p-PCA-induced ejaculation in anesthetized rats (ejaculation-delaying effect)
Format: in vivo, rat
Conditions: for Ratio: Number of responding animals/total animal number: 50 mg/kg oral in 1% HPMC, p-PCA 5 mg/kg i.p. 80 min later, observed 30 min; for Latency: Time to display the ejaculatory response: 50 mg/kg oral, p-PCA 5 mg/kg i.p., mean ± standard deviation of responding rats
Protocol: The compounds prepared in the above examples were evaluated to determine whether they have an effect of delaying ejaculation. The evaluation was carried out using an animal model according to a method described in Yonezawa et al., Life Sci. 2000, 67(25) p 3031-9. Male Wistar rats weighing 240-260 g were used. Each compound was suspended in 1% HPMC, and then administered orally to each animal. After 60 min, the animals were anesthetized and fixed. 20 min later, para-chloroamphetamine (p-PCA) was intraperitoneally administered in a dose of 5 mg/kg in order to induce ejaculation. […] An ejaculatory response was considered to be elicited when rhythmic contraction of bulbocavernosus muscles and semen discharge occurs. Six or more animals were used for each compound. A Fisher's […] test was performed for the comparison of the proportion of responding rats (ejaculated rats) to determine significance of difference between a treatment group and a vehicle control. The time to reach ejaculation was expressed as mean±standard deviation.
Each test compound was administered at a dose of 50 mg/kg. Ejaculation was elicited in all seven animals of a control group.

| SMILES | Ratio: Number of responding animals/total animal number | Latency: Time to display the ejaculatory response |
| --- | --- | --- |
| COc1ccc(C2(CCCN(C)C)OCc3cc(C#N)ccc32)cc1 (stereo not drawn) [Ex. 1, 1-(4-methoxyphenyl)-1-{3-(dimethylamino)propyl}-1,3-dihydro-5-isobenzofurancarbonitrile] | 5/9 | 1024 ± 256 s |
| COc1ccc(C2(CCCN(C)C)OCc3cc(C#N)ccc32)cc1.Cl (stereo not drawn) [Ex. 3, 1-{3-(dimethylamino)propyl}-1-(4-methoxyphenyl)-1,3-dihydro-5-isobenzofurancarbonitrile hydrochloride] | 1/6 | 1234 s |
| COc1ccc(C2(CCCn3ccnc3)OCc3cc(C#N)ccc32)cc1 (stereo not drawn) [Ex. 4, 1-{3-(imidazole-1-yl)propyl}-1-(4-methoxyphenyl)-1,3-dihydro-5-isobenzofurancarbonitrile] | 4/9 | 1300 ± 124 s |
| COc1ccc(C2(CCCn3ccnc3)OCc3cc(C#N)ccc32)cc1.Cl (stereo not drawn) [Ex. 5, 1-{13-(imidazole-1-yl)propyl}-1-(4-methoxyphenyl)-1,3-dihydro-5-isobenzofurancarbonitrile hydrochloride] | 3/7 | 986 ± 342 s |
| COc1ccc(C2(CCn3ccnc3)OCc3cc(C#N)ccc32)cc1 (stereo not drawn) [Ex. 6, 1-{2-(imidazole-1-yl)ethyl}-1-(4-methoxyphenyl)-1,3-dihydro-5-isobenzofurancarbonitrile] | 4/7 | 889 ± 284 s |
| COc1ccc(C2(CCn3ccnc3)OCc3cc(C#N)ccc32)cc1.Cl (stereo not drawn) [Ex. 7, 1-{2-(imidazole-1-yl)ethyl}-1-(4-methoxyphenyl)-1,3-dihydro-5-isobenzofurancarbonitrile hydrochloride] | 5/9 | 963 ± 304 s |
| COc1ccc(C2(CCCn3cccn3)OCc3cc(C#N)ccc32)cc1 (stereo not drawn) [Ex. 8, 1-(4-methoxyphenyl)-1-{3-(pyrazole-1-yl)propyl}-1,3-dihydro-5-isobenzofurancarbonitrile] | 4/9 | 1230 ± 421 s |
| COc1ccc(C2(CCCn3cccn3)OCc3cc(C#N)ccc32)cc1.Cl (stereo not drawn) [Ex. 9, 1-(4-methoxyphenyl)-1-{3-(pyrazole-1-yl)propyl}-1,3-dihydro-5-isobenzofurancarbonitrile hydrochloride] | 4/7 | 950 ± 245 s |
| COc1ccc(C2(CCn3cccn3)OCc3cc(C#N)ccc32)cc1 (stereo not drawn) [Ex. 10, 1-(4-methoxyphenyl)-1-{2-(pyrazole-1-yl)ethyl}-1,3-dihydro-5-isobenzofurancarbonitrile] | 4/9 | 889 ± 360 s |
| COc1ccc(C2(CCn3cccn3)OCc3cc(C#N)ccc32)cc1.Cl (stereo not drawn) [Ex. 11, 1-(4-methoxyphenyl)-1-{2-(pyrazole-1-yl)ethyl}-1,3-dihydro-5-isobenzofurancarbonitrile hydrochloride] | 3/7 | 974 ± 289 s |
| CN(C)CCCC1(c2ccccc2)OCc2cc(C#N)ccc21 (stereo not drawn) [Ex. 12, 1-{3-(dimethylamino)propyl}-1-phenyl-1,3-dihydro-5-isobenzofurancarbonitrile] | 4/9 | 1025 ± 189 s |
| CN(C)CCCC1(c2ccccc2)OCc2cc(C#N)ccc21.Cl (stereo not drawn) [Ex. 13, 1-{3-(dimethylamino)propyl}-1-phenyl-1,3-dihydro-5-isobenzofurancarbonitrile hydrochloride] | 1/6 | 327 s |
| CN(C)CCC1(c2ccccc2)OCc2cc(C#N)ccc21 (stereo not drawn) [Ex. 14, 1-{2-(dimethylamino)ethyl}-1-phenyl-1,3-dihydro-5-isobenzofurancarbonitrile] | 3/7 | 1032 ± 451 s |
| CN(C)CCC1(c2ccccc2)OCc2cc(C#N)ccc21.Cl (stereo not drawn) [Ex. 15, 1-{2-(dimethylamino)ethyl}-1-phenyl-1,3-dihydro-5-isobenzofurancarbonitrile hydrochloride] | 4/9 | 1345 ± 510 s |
| N#Cc1ccc2c(c1)COC2(CCCn1ccnc1)c1ccccc1 (stereo not drawn) [Ex. 16, 1-{3-(imidazole-1-yl)propyl}-1-phenyl-1,3-dihydro-5-isobenzofurancarbonitrile] | 4/9 | 856 ± 365 s |
| Cl.N#Cc1ccc2c(c1)COC2(CCCn1ccnc1)c1ccccc1 (stereo not drawn) [Ex. 17, 1-{3-(imidazole-1-yl)propyl}-1-phenyl-1,3-dihydro-5-isobenzofurancarbonitrile hydrochloride] | 3/6 | 949 ± 330 s |
| N#Cc1ccc2c(c1)COC2(CCn1ccnc1)c1ccccc1 (stereo not drawn) [Ex. 18, 1-{2-(imidazole-1-yl)ethyl}-1-phenyl-1,3-dihydro-5-isobenzofurancarbonitrile] | 3/7 | 691 ± 361 s |
| Cl.N#Cc1ccc2c(c1)COC2(CCn1ccnc1)c1ccccc1 (stereo not drawn) [Ex. 19, 1-{2-(imidazole-1-yl)ethyl}-1-phenyl-1,3-dihydro-5-isobenzofurancarbonitrile hydrochloride] | 5/9 | 954 ± 275 s |
| N#Cc1ccc2c(c1)COC2(CCn1cccn1)c1ccccc1 (stereo not drawn) [Ex. 20, 1-phenyl-1-{2-(pyrazole-1-yl)ethyl}-1,3-dihydro-5-isobenzofurancarbonitrile] | 3/7 | 978 ± 378 s |
| Cl.N#Cc1ccc2c(c1)COC2(CCn1cccn1)c1ccccc1 (stereo not drawn) [Ex. 21, 1-phenyl-1-{2-(pyrazole-1-yl)ethyl}-1,3-dihydro-5-isobenzofurancarbonitrile hydrochloride] | 4/7 | 799 ± 387 s |
| Cc1ccc(C2(CCCN(C)C)OCc3cc(C#N)ccc32)cc1 (stereo not drawn) [Ex. 22, 1-{3-(dimethylamino)propyl}-1-(4-tolyl)-1,3-dihydro-5-isobenzofurancarbonitrile] | 3/7 | 830 ± 287 s |
| Cc1ccc(C2(CCCN(C)C)OCc3cc(C#N)ccc32)cc1.Cl (stereo not drawn) [Ex. 23, 1-{3-(dimethylamino)propyl}-1-(4-tolyl)-1,3-dihydro-5-isobenzofurancarbonitrile hydrochloride] | 4/7 | 967 ± 274 s |
| Cc1ccc(C2(CCN(C)C)OCc3cc(C#N)ccc32)cc1 (stereo not drawn) [Ex. 24, 1-{2-(dimethylamino)ethyl}-1-(4-tolyl)-1,3-dihydro-5-isobenzofurancarbonitrile] | 3/7 | 1021 ± 367 s |
| Cc1ccc(C2(CCN(C)C)OCc3cc(C#N)ccc32)cc1.Cl (stereo not drawn) [Ex. 25, 1-{2-(dimethylamino)ethyl}-1-(4-tolyl)-1,3-dihydro-5-isobenzofurancarbonitrile hydrochloride] | 4/9 | 841 ± 254 s |
| Cc1ccc(C2(CCCn3ccnc3)OCc3cc(C#N)ccc32)cc1 (stereo not drawn) [Ex. 26, 1-{3-(imidazole-1-yl)propyl}-1-(4-tolyl)-1,3-dihydro-5-isobenzofurancarbonitrile] | 4/7 | 904 ± 304 s |
| Cc1ccc(C2(CCCn3ccnc3)OCc3cc(C#N)ccc32)cc1.Cl (stereo not drawn) [Ex. 27, 1-{3-(imidazole-1-yl)propyl}-1-(4-tolyl)-1,3-dihydro-5-isobenzofurancarbonitrile hydrochloride] | 3/7 | 864 ± 257 s |
| Cc1ccc(C2(CCn3ccnc3)OCc3cc(C#N)ccc32)cc1 (stereo not drawn) [Ex. 28, 1-{2-(imidazole-1-yl)ethyl}-1-(4-tolyl)-1,3-dihydro-5-isobenzofurancarbonitrile] | 3/7 | 734 ± 451 s |
| Cc1ccc(C2(CCn3ccnc3)OCc3cc(C#N)ccc32)cc1.Cl (stereo not drawn) [Ex. 29, 1-{2-(imidazole-1-yl)ethyl}-1-(4-tolyl)-1,3-dihydro-5-isobenzofurancarbonitrile hydrochloride] | 5/9 | 1054 ± 287 s |
| Cc1ccc(C2(CCCn3cccn3)OCc3cc(C#N)ccc32)cc1 (stereo not drawn) [Ex. 30, 1-{3-(pyrazole-1-yl)propyl}-1-(4-tolyl)-1,3-dihydro-5-isobenzofurancarbonitrile] | 3/7 | 876 ± 300 s |
| Cc1ccc(C2(CCCn3cccn3)OCc3cc(C#N)ccc32)cc1.Cl (stereo not drawn) [Ex. 31, 1-{3-(pyrazole-1-yl)propyl}-1-(4-tolyl)-1,3-dihydro-5-isobenzofurancarbonitrile hydrochloride] | 3/9 | 754 ± 401 s |
